Data set [1] deals with T. brucei trypomastigotes (Squib-427 strain). Briefly: T. brucei blood stage proliferation, resazurin. Type of data set: cell-based. The settings on record: Trypanosoma brucei; blood stage form, 72 hours incubation; read-out: Tbru parasite EC50. The method, then: (§1) Compounds with TbruGSK-3 short IC50<100 nM were tested for their ability to inhibit the proliferation of T. brucei (blood stage form). Cytotoxicity testing against human fetal lung fibroblast MRC-5 cell line was also performed. Both assays were carried out with compound concentrations up to 64 µM at the Laboratory for Microbiology, Parasitology and Hygiene, University of Antwerp (www.ua.ac.be). Briefly, T. brucei trypomastigotes (Squib-427 strain, suramin-sensitive) were cultured in Hirumi-9 medium supplemented with 10% fetal calf serum at 1.5×10^4 trypomastigotes per well. Following 72 hours incubation, parasite growth was assessed fluorimetrically by addition of resazurin. For cytotoxicity evaluation, 10^4 MRC-5 cells/well were seeded onto the test plates containing the pre-diluted compounds and incubated at 37°C with 5% CO2 for 72 hours. Cell viability was determined fluorimetrically after addition of resazurin [24], [25]. Single point kinase panel screening was also conducted on selected compounds at 10 µM by Invitrogen (www.Invitrogen.com) and University of Dundee, UK (www.dundee.ac.uk).

The target in a further data set is T1, TbruGSK-3 short (Trypanosoma brucei brucei, UniProt Q388M1).
T1 construct: made in house
T1 sequence (Q388M1 1-352): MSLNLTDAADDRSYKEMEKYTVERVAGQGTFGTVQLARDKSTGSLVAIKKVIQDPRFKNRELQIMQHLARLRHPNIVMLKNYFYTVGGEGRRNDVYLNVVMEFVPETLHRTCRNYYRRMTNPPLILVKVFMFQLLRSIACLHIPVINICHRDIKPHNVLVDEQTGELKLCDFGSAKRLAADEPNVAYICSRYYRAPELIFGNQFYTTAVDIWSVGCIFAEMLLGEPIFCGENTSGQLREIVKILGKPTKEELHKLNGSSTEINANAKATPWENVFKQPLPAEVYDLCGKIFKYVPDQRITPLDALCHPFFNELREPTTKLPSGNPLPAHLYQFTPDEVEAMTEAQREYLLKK
Nature of the data set: TbruGSK-3 short Kinase-Glo luminescent ATP depletion assay. Type of data set: biochemical. The settings on record: mean of at least 2 replicates; 2 µM ATP; read-out: Tbru GSK-3 short IC50. The source says:
Recombinant TbruGSK-3 short (accession number Tb10.161.3140) was produced at the University of Washington and shipped to Pfizer, Sandwich, UK for testing. Kinase-Glo reagent (Promega) was used as previously described. This luciferase coupled assay, which provides a luminescent quantification of ATP […] during the kinase reaction, was modified to a 384-well plate screening format. A selected library of 16,540 compounds comprising known HsGSK-3 beta inhibitors and close structural analogues was screened at 10 µM final assay concentration. Assay plates were prepared by dispensing 0.2 µL of compound (dissolved in 100% DMSO) from master plates into white 384-well plates (Greiner bio one). Primary screening was conducted in a 20 µL reaction volume. Enzyme was added to each well to a final concentration of 3.8 nM in a volume of 10 µl using a Multidrop Combi dispenser (Thermo Scientific) and the plates were incubated for 15 minutes at room temperature (RT). Glycogen synthase peptide 2 (BioGSP2; Sigma) and ATP, were dissolved in 20% acetonitrile and 1 M Tris-HCl pH 7.6 respectively, then diluted in assay buffer to a final concentration of 3.2 µM BioGSP2 and 2 µM ATP. The assay buffer consisted of 25 mM Tris-HCl pH 7.5, 10 mM MgCl2, 5 mM DTT, 0.1 mg/mL BSA, 2 U/mL Heparin and 10 µM EDTA. The reaction was initiated by adding 10 µL of the substrate mixture to each well and allowed to proceed at RT for 2 h. Twenty microlitres of Kinase-Glo reagent was added to quench the reaction. Luminescence was measured after 1 h at a 100 millisecond/well integration time using the Acquest Multimode plate reader (Molecular Devices). Each plate included a positive control (4 µM GW8510, Sigma) and negative control (1% DMSO). […] The data was analysed using Pfizer SIGHTS software and visualised using Spotfire software (TIBCO). Five separate 384-well plates were screened in duplicate to assess the assay reproducibility.

Data set [2] can be described thus: Cytotoxicity against MRC-5 cell line, resazurin. The class given is cell-based, human. Particulars: human, MRC-5 fetal lung fibroblast cells; 72 hours incubation. The method, then:
as §1

The target of the next data set is T2, HsGSK-3 beta (Homo sapiens, UniProt P49841).
T2 construct: purchased Invitrogen
Nature of the data set: Human GSK-3 beta inhibition (Pfizer data files or Omnia Kinase Assay). Type of data set: biochemical. Particulars: recovered from Pfizer data files or Omnia Kinase Assay, mean of at least 2 replicates. How it is done:
Human GSK-3 beta inhibition data (IC50) for many of the compounds were recovered from Pfizer data files. If historical data were not available, the compounds were tested in an assay using 10 nM HsGSK-3 beta (Invitrogen) using Omnia Kinase Assay (Invitrogen) according to the manufacturer's instructions. The reaction volume was 20 µL and a range of compound concentrations were tested, up to a maximum of 40 µM. Briefly, 5 µl of HsGSK-3 beta was dispensed into black 384 assay plates (Greiner bio one) containing 0.2 µl of compounds. The enzyme was incubated with the compounds for 15 minutes at 30°C then 15 µl of substrate mixture was added to each well to commence the reaction. The substrate mixture consisted of 2 µL each of 2× kinase reaction buffer, 10 µM Omina peptide substrate, 0.2 mM DTT and 10 µM ATP, and 7 µL of ultra pure water. The reaction was allowed to proceed for 30 minutes at 30°C. Increase in fluorescence levels indicating peptide phosphorylation by the enzyme was monitored using an Envision (PerkinElmer) with λex 360/λem 485 nm and the data were analysed using Pfizer software SIGHTS and Spotfire (TIBCO).

The subject of another data set is CaCo2 cell. Briefly: CaCo2 cell flux assay. Type of data set: in vitro ADME. The settings on record: data not shown.
For data set [3], the system named is panel of approximately 40 human kinases. Briefly: Single point human kinase panel screening. The settings on record: 10 µM. The class given is biochemical. How it is done:
as §1

The subject of data set [4] is human fetal lung fibroblast MRC-5 cell line. Nature of the data set: Cytotoxicity against MRC-5 cell line, resazurin. The settings on record: ratio of EC50s. The class given is cell-based. How it is done:
as §1

The values that follow come from article PMC3071371, “Trypanosoma brucei Glycogen Synthase Kinase-3, A Target for Anti-Trypanosomal Drug Development: A Public-Private Partnership to Identify Novel Leads” (PLoS Neglected Tropical Diseases, 2011).

Entries after “also recorded” stand apart in the source; their conditions may differ.

T2 sequence (P49841 whole entry): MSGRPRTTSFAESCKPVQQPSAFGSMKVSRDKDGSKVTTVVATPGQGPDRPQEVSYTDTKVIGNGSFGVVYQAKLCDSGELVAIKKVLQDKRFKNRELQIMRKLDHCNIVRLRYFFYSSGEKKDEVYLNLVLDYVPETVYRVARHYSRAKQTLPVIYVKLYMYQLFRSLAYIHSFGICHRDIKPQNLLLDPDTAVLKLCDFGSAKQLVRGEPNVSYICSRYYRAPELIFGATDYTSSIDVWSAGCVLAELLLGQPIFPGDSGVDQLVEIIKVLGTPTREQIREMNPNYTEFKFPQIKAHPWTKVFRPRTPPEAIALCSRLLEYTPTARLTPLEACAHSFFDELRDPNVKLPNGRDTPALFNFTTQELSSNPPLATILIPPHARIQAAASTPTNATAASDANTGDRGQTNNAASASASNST

As for `CS(=O)(=O)c1ccc(S(=O)(=O)Nc2ccc3c(Cl)c(C(=O)N4CCc5ccccc5C4)sc3c2)cc1` [AG-02449], in data set [1], the EC50 was found to be 130 nM. Besides, the IC50 at TbruGSK-3 short is 69 nM. In data set [2], this compound came in with an EC50 at 72 h of 620 nM.

`CNCc1cncc(-c2ccc3[nH]nc(-c4nc5ccccc5[nH]4)c3c2)c1C` [AG-024290]: the EC50 in data set [1] was determined as 130 nM. Further, the IC50 was 62 nM on TbruGSK-3 short and 173 nM against HsGSK-3 beta. Also, in data set [2], the EC50 at 72 h amounted to 130 nM.

Regarding `CCc1nn(CCC(=O)Nc2cc([C@H]3C[C@@H](NC(C)=O)C3)[nH]n2)c2ccccc12` [CE-160042], the EC50 in data set [1] was over 25000 nM. The IC50 on TbruGSK-3 short is 142 nM; against HsGSK-3 beta, 32 nM. Further, the “cell permeability in CaCo2 cell flux assay” value in the data set on CaCo2 cell was “no detectable cell permeability”. In addition, the “human kinase panel specificity (in words)” value in data set [3] is “highly specific and only inhibited HsGSK-3 beta; also recorded: no significant inhibition of any other kinases”.

As for `CCCC1=C(C#N)C(c2cccc3nonc23)c2cn[nH]c2N1` (centres unmarked) [CE-309608], the EC50 in data set [1] was 2690 nM. Besides, the IC50 at TbruGSK-3 short came out at 21 nM; against HsGSK-3 beta, 46 nM. In data set [2], the EC50 at 72 h came out at 16000 nM.

As for `O=C(NC1CCN(C(=O)Cc2ccccc2)C1)c1ccc2[nH]nc(-c3nc4ccccc4[nH]3)c2c1` (centres unmarked) [CE-317112], the EC50 in data set [1] worked out at 1140 nM. Also, the IC50 at TbruGSK-3 short came to 99 nM; at HsGSK-3 beta it was 3 nM. Moreover, in data set [4], the “selectivity window between T. brucei activity and activity on MRC5 cells” value is reported as 35 fold. The midpoint of the response in data set [2], the EC50 at 72 h, lay at 39400 nM.

For the compound `CC(C)C(=O)Nc1cc([C@H]2C[C@@H](OC(=O)NCc3ccccc3Cl)C2)[nH]n1` [CE-324998], in data set [1], the EC50 came out at 230 nM. For the same compound, the figures for the IC50 on TbruGSK-3 short and at HsGSK-3 beta were 93 nM and 1 nM, respectively. Besides, a half-maximal response in data set [2] (EC50 at 72 h) required 1220 nM.

Turning to `CC(C)C(=O)Nc1cc([C@H]2C[C@@H](OC(=O)NCc3cccc(C(F)(F)F)c3F)C2)[nH]n1` [CE-325011], in data set [1], the EC50 was 1050 nM. Moreover, the values for the IC50 at TbruGSK-3 short and at HsGSK-3 beta were 94 nM and 5 nM, respectively. Besides, in data set [2], the EC50 at 72 h is 2320 nM.

`CC(C)C(=O)Nc1cc([C@H]2C[C@@H](OC(=O)N(C)Cc3ccccc3)C2)[nH]n1` [CE-325692]: the EC50 in data set [1] amounted to 640 nM. Also, the IC50 at TbruGSK-3 short was 65 nM; against HsGSK-3 beta, 2 nM. The compound further displayed an EC50 at 72 h in data set [2] of 4670 nM.

Regarding `CCC(C(=O)Nc1cc([C@H]2C[C@@H](OC(=O)NCc3ccccn3)C2)[nH]n1)c1ccccc1` (some centres unmarked) [PF-00305135], the EC50 in data set [1] worked out at 2450 nM. Also, the values for the IC50 on TbruGSK-3 short and against HsGSK-3 beta were 67 nM and 3 nM, respectively. Also, the EC50 at 72 h in data set [2] was found to be 930 nM.

As for `CN(C)C[C@@H](NC(=O)c1ccc2[nH]nc(-c3nc4ccccc4[nH]3)c2c1)c1ccccc1` [PF-00744923], the EC50 in data set [1] came out at 130 nM. Besides, the IC50 is 70 nM on TbruGSK-3 short and under 1000 nM against HsGSK-3 beta. The compound also came in with an EC50 at 72 h in data set [2] of 130 nM.

Turning to `Cc1cc2nc(N3CCc4nc[nH]c(=O)c4C3)nc(Nc3cc(C4CC4)[nH]n3)c2s1` [PF-00956933], the EC50 in data set [1] was determined as 130 nM. For the same compound, the IC50 is 57 nM on TbruGSK-3 short and under 1000 nM against HsGSK-3 beta. This compound yielded an EC50 at 72 h in data set [2] of 2170 nM.

For the compound `Cc1cc(Nc2cc[nH]n2)nc(N(C)CCc2ccncc2)n1` [PF-01242377], in data set [1], the EC50 came to 130 nM. Further, the IC50 at TbruGSK-3 short stood at 61 nM; against HsGSK-3 beta, 132 nM. In addition, a half-maximal effect in data set [2] (EC50 at 72 h) was put at 1180 nM.

Turning to `CNC(=O)[C@@H]1CCCN1c1nc(Cc2cccc(C#N)c2)cc(Nc2cc(C3CC3)[nH]n2)n1` [PF-02368935], the EC50 in data set [1] is 130 nM. Further, the IC50 on TbruGSK-3 short was 19 nM; at HsGSK-3 beta, under 1000 nM. For the same compound, a half-maximal effect in data set [2] (EC50 at 72 h) was put at 130 nM.

Take `O=C(NCc1ccccc1)O[C@H]1C[C@@H](c2cc(NC(=O)C3CCCCC3)n[nH]2)C1` [PF-04279731]: the EC50 in data set [1] was 1230 nM. For the same compound, the results for the IC50 at TbruGSK-3 short and against HsGSK-3 beta were 62 nM and 1 nM, respectively. Moreover, the EC50 at 72 h in data set [2] is 1470 nM. Moreover, the “number of other kinases with >50% inhibition” value in data set [3] is on record as 2.

For `O=C1NCCc2[nH]c(-c3ccnc(Nc4ccc(-n5cccn5)cc4)c3)cc21` [PF-04903528], the EC50 in data set [1] turned out to be 1130 nM. The IC50 was found to be 32 nM at TbruGSK-3 short and 236 nM on HsGSK-3 beta. The compound also returned an EC50 at 72 h in data set [2] of 1130 nM.

Consider `O=c1ccc2cnc(Nc3ccccc3)nc2n1C1CC2CCC1C2` (centres unmarked) [compound 0180532], for which the IC50 on TbruGSK-3 short was found to be 7270 nM; at HsGSK-3 beta, 60 nM. Moreover, the “number of other kinases with >50% inhibition” value in data set [3] was found to be 4.

Consider `O=c1ccc2cnc(Nc3ccc(N4CCC(CCCO)CC4)cc3)nc2n1C1CCCC1` [compound 0181276], for which the results for the IC50 on TbruGSK-3 short and on HsGSK-3 beta were 600 nM and 4290 nM, respectively. Also, the “human kinase panel specificity (in words)” value in data set [3] was “relatively specific against the wider human kinase panel”.
